Calls of active or inactive are those of the source. No cut-off for these calls is given here.
How the values were obtained:
[1] = target: T1, Bromodomain-containing protein 9 (Homo sapiens) (UniProt Q9H8M2); experiment: Inhibition of BRD9 in human PC-9 cells assessed as reduction in ALDH1A1 gene expression at 2 uM preincubated with erlotinib for 8 days followed by compound addition and measured after 24 hrs by RNA sequencing analysis; format: cell-based
T1 sequence (whole entry): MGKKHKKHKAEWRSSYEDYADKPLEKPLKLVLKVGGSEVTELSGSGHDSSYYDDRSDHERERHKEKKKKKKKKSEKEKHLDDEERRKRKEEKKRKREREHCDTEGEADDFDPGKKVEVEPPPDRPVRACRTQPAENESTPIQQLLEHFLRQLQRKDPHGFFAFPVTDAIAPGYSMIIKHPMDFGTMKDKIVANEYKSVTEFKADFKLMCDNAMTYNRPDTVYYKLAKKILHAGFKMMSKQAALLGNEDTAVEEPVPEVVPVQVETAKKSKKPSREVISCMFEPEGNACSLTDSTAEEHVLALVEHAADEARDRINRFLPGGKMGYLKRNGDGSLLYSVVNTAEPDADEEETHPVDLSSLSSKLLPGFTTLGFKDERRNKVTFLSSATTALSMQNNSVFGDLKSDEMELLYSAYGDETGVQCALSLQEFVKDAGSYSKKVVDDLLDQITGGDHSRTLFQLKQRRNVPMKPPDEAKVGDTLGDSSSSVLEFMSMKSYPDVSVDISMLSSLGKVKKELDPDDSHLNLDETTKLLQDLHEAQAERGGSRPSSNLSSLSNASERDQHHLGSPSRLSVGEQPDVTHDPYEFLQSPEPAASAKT

[2] = target: T1, Bromodomain-containing protein 9 (Homo sapiens); experiment: Inhibition of BRD9 in human PC-9 cells assessed as reduction in ALDH1A1 gene expression at 0.5 uM preincubated with erlotinib for 8 days followed by compound addition and measured after 24 hrs by RNA sequencing analysis; format: cell-based
[3] = tested on: K562; experiment: Cytotoxicity against human K562 cells measured after 3 days; format: functional, cell-based; details: K562, 72 h
[4] = tested on: KARPAS-422; experiment: Cytotoxicity against human KARPAS-422 cells measured after 3 days; format: functional, cell-based; details: KARPAS-422, 72 h
[5] = Cytotoxicity against human KMS-21BM cells measured after 3 days; format: functional, cell-based; details: 72 h
[6] = Cytotoxicity against human KMS-28PE cells measured after 3 days; format: functional, cell-based; details: 72 h
[7] = tested on: Raji; experiment: Cytotoxicity against human Raji cells measured after 3 days; format: functional, cell-based; details: 72 h
[8] = tested on: SET-2; experiment: Cytotoxicity against human SET2 cells measured after 3 days; format: functional, cell-based; details: SET-2, 72 h
[9] = tested on: U-937; experiment: Cytotoxicity against human U-937 cells measured after 3 days; format: functional, cell-based; details: U-937, 72 h
[10] = tested on: Hep 3B2; experiment: Cytotoxicity against human Hep 3B2.1-7 cells measured after 3 days; format: functional, cell-based; details: Hep3B, 72 h
[11] = Cytotoxicity against human JHH-6 cells measured after 3 days; format: functional, cell-based; details: JHH-6, 72 h
[12] = Cytotoxicity against human JHH-4 cells measured after 3 days; format: functional, cell-based; details: JHH-4, 72 h
[13] = tested on: NOMO-1; experiment: Cytotoxicity against human NOMO-1 cells measured after 3 days; format: functional, cell-based; details: NOMO-1, 72 h
[14] = tested on: TMD8; experiment: Cytotoxicity against human TMD8 cells measured after 3 days; format: functional, cell-based; details: TMD8, 72 h
[15] = tested on: KMS-12-PE; experiment: Cytotoxicity against human KMS-12-PE cells measured after 3 days; format: functional, cell-based; details: 72 h
[16] = tested on: NCI-H929; experiment: Cytotoxicity against human NCI-H929 cells measured after 3 days; format: functional, cell-based; details: NCI-H929, 72 h
[17] = Cytotoxicity against human NCE-G 111 cells measured after 3 days; format: functional, cell-based; details: NCE-G 111, 72 h
[18] = Cytotoxicity against human NCE-G 59 cells measured after 3 days; format: functional, cell-based; details: NCE-G 59, 72 h
[19] = tested on: SUD4; experiment: Cytotoxicity against human SU-DHL-4 cells measured after 3 days; format: functional, cell-based; details: SU-DHL-4, 72 h
[20] = tested on: SU-DHL-5; experiment: Cytotoxicity against human SU-DHL-5 cells measured after 3 days; format: functional, cell-based; details: SU-DHL-5, 72 h
[21] = Cytotoxicity against human WSU-FSCCL cells measured after 3 days; format: functional, cell-based; details: 72 h
[22] = tested on: EFO-27; experiment: Cytotoxicity against human EFO-27 cells measured after 3 days; format: functional, cell-based; details: EFO-27, 72 h
[23] = tested on: IGROV-1; experiment: Cytotoxicity against human IGROV-1 cells measured after 3 days; format: functional, cell-based; details: IGROV-1, 72 h
[24] = tested on: OVCAR-3; experiment: Cytotoxicity against human OVCAR-3 cells measured after 3 days; format: functional, cell-based; details: OVCAR-3, 72 h
[25] = tested on: MDA-MB-453; experiment: Cytotoxicity against human MDA-MB-453 cells measured after 3 days; format: functional, cell-based; details: MDA-MB-453, 72 h
[26] = tested on: CAL-148; experiment: Cytotoxicity against human CAL-148 cells measured after 3 days; format: functional, cell-based; details: CAL-148, 72 h
[27] = tested on: CAMA-1; experiment: Cytotoxicity against human CAMA-1 cells measured after 3 days; format: functional, cell-based; details: CAMA-1, 72 h
[28] = tested on: HCC1187; experiment: Cytotoxicity against human HCC1187 cells measured after 3 days; format: functional, cell-based; details: HCC1187, 72 h
[29] = Cytotoxicity against human SUM52PE cells measured after 3 days; format: functional, cell-based; details: 72 h
[30] = tested on: SK-BR-3; experiment: Cytotoxicity against human SK-BR-3 cells measured after 3 days; format: functional, cell-based; details: SK-BR-3, 72 h
[31] = Cytotoxicity against human OVCA 420 cells measured after 3 days; format: functional, cell-based; details: OVCA 420, 72 h
[32] = Cytotoxicity against human COV318 cells measured after 3 days; format: functional, cell-based; details: COV318, 72 h
[33] = Cytotoxicity against human COV413B cells measured after 3 days; format: functional, cell-based; details: 72 h
[34] = Cytotoxicity against human COV434 cells measured after 3 days; format: functional, cell-based; details: COV434, 72 h
[35] = tested on: OAW-28; experiment: Cytotoxicity against human OAW28 cells measured after 3 days; format: functional, cell-based; details: OAW-28, 72 h
[36] = Cytotoxicity against human OVCAR433 cells measured after 3 days; format: functional, cell-based; details: OVCAR433, 72 h
[37] = tested on: HBL-100; experiment: Cytotoxicity against human HBL-100 cells measured after 8 days; format: functional, cell-based; details: HBL-100, 192 h
[38] = tested on: HCC1395; experiment: Cytotoxicity against human HCC1395 cells measured after 8 days; format: functional, cell-based; details: HCC1395, 192 h
[39] = Cytotoxicity against human HCC3153 cells measured after 8 days; format: functional, cell-based; details: HCC3153, 192 h
[40] = tested on: NCI-H1793; experiment: Cytotoxicity against human NCI-H1793 cells measured after 8 days; format: functional, cell-based; details: NCI-H1793, 192 h
[41] = tested on: MCF7; experiment: Cytotoxicity against human MCF-7-SER cells measured after 8 days; format: functional, cell-based; details: MCF7, 192 h
[42] = tested on: Calu-1; experiment: Cytotoxicity against human Calu-1 cells after 8 days; format: functional, cell-based; details: Calu-1, 192 h
[43] = Cytotoxicity against human HCC193 cells after 8 days; format: functional, cell-based; details: HCC193, 192 h
[44] = tested on: NCI-H1573; experiment: Cytotoxicity against human NCI-H1573 cells after 8 days; format: functional, cell-based; details: NCI-H1573, 192 h
[45] = tested on: NCI-H1299; experiment: Antiproliferative activity against human NCI-H1299 cells assessed as reduction in colony formation up to 20 uM supplemented with fresh medium containing compound every 3 days for 9 days by MTT staining based clonogenic assay; format: functional, cell-based; details: time 9.0 day
[46] = tested on: Pfeiffer; experiment: Cytotoxicity against human Pfeiffer cells measured after 8 days; format: functional, cell-based; details: 192 h

C/C=C/Cn1cc(-c2ccc(C(=O)N3CCOCC3)cc2)c2cc[nH]c2c1=O
inhibition [1]: Active

C/C=C/Cn1cc(-c2cc(OC)c(C(=O)N3CCOCC3)cc2OC)c2cc(C)[nH]c2c1=O
inhibition [2]: Active
IC50 [3]: 5 µM
IC50 [4]: 5 µM
IC50 [5]: 5 µM
IC50 [6]: 5 µM
IC50 [7]: 5 µM
IC50 [8]: 5 µM
IC50 [9]: 5 µM
IC50 [10]: 5 µM
IC50 [11]: 5 µM
IC50 [12]: 5 µM
IC50 [13]: 5 µM
IC50 [14]: 5 µM
IC50 [15]: 5 µM
IC50 [16]: 5 µM
IC50 [17]: 5 µM
IC50 [18]: 5 µM
IC50 [19]: 5 µM
IC50 [20]: 5 µM
IC50 [21]: 5 µM
IC50 [22]: 5 µM
IC50 [23]: 5 µM
IC50 [24]: 5 µM
IC50 [25]: 5 µM
IC50 [26]: 5 µM
IC50 [27]: 5 µM
IC50 [28]: 5 µM
IC50 [29]: 5 µM
IC50 [30]: 5 µM
IC50 [31]: 5 µM
IC50 [32]: 5 µM
IC50 [33]: 5 µM
IC50 [34]: 5 µM
IC50 [35]: 5 µM
IC50 [36]: 5 µM
IC50 [37]: 2 µM
IC50 [38]: 2 µM
IC50 [39]: 2 µM
IC50 [40]: 2 µM
IC50 [41]: 2 µM
IC50 [42]: 2 µM
IC50 [43]: 2 µM
IC50 [44]: 2 µM

C/C=C/Cn1cc(-c2ccc(C(C)(C)O)cc2OC)c2cc[nH]c2c1=O
Activity [45]: inactive
IC50 [46]: 6.95 µM
